Experimental data reported in patent publication US20230391748A1, “BICYCLIC INHIBITORS OF IRAK” (priority 2022, published 2023).

Columns and labels:
TNF-α in human PBMCs = assay: R848-induced TNF-α in human PBMCs Assay; format: cell-based; details: Homo sapiens, PBMC, 4 h, read-out: TNFα (PBMC, R848) (IC50, μM)
Method in brief: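 Human PBMCs at 200K/well were pretreated with compound, then R848-stimulated for 4 h at 37 °C, 5% CO2. Supernatant TNF-α quantified by chemiluminescent ELISA; EC50 from curve fitting.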

[1] = test system: TNF-α in Human Primary Monocyte-Derived Dendritic Cells; assay: Gardiquimod-Induced TNF-α in Human Primary Monocyte-Derived Dendritic Cells; format: cell-based; details: Dendritic cell, IFNγ-primed monocyte-derived dendritic cells, 4 μg/ml Gardiquimod, 6 hours, TNF-α ELISA, read-out: TNFα (DC, GARD) (IC50)
Method in brief: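 Monocytes differentiated 7 days with GM-CSF and IL-4, then primed 24 h with 50 ng/ml IFN-γ. Compound added 1 h before 6 h stimulation with 4 μg/ml Gardiquimod, 0.5% DMSO final. Supernatant TNF-α measured by chemiluminescent ELISA; EC50 from curve fitting.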

IRAK4 = IRAK4 (Homo sapiens (Human), UniProt Q9NWZ3); assay: IRAK4 ADP-Glo Assay; format: biochemical; details: MBP substrate
Sequence of IRAK4 (Q9NWZ3 whole entry): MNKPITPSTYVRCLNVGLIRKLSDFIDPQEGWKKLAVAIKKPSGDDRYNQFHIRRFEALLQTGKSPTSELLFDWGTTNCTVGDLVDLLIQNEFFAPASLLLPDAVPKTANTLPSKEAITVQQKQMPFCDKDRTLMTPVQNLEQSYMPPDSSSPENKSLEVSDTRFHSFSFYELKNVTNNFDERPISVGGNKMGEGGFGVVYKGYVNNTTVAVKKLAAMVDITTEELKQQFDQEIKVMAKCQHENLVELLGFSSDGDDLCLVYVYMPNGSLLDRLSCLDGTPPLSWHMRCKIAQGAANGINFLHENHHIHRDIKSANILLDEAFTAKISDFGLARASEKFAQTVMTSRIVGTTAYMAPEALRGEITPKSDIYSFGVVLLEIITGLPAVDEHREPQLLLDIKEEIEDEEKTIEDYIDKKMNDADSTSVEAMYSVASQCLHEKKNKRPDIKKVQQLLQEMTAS
Method in brief: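 Human IRAK4 kinase reaction with MBP substrate plus ATP in Tris-HCl/MgCl2/BSA/DTT buffer, pH 7.4, run 60 min at room temperature or 30 min at 30 °C. ADP formed was measured by ADP-Glo luminescence after ATP depletion (40 min) and detection reagent (30 min).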

IL23p19 in THP-1 Cells = assay: LPS Induced IL23p19 in THP-1 Cells (with IFNγ Primed) Assay; format: cell-based; details: Homo sapiens, THP-1, 18 h, read-out: IL23 (THP, LPS) (IC50, μM)
Method in brief: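 THP-1 cells (50K/well) primed with IFNγ (50 ng/mL) about 18 h, then given compound and stimulated with LPS for 18 h at 37 °C. Secreted IL-23p19 measured by sandwich ELISA with chemiluminescent read-out, giving EC50. Cell Titer Glo used on the remaining cells for toxicity.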

For CC(C)Oc1cc2c(O[C@@H]3CCCN(C(=O)CC#N)C3)ncc(-c3cnn(C4CCOCC4)c3)c2cc1C(N)=O [Compound I-117, (R)-1-((1-(2-cyanoacetyl)piperidin-3-yl)oxy)-7-isopropoxy-4-(1-(tetrahydro-2H-pyran-4-yl)-1H-pyrazol-4-yl)isoquinoline-6-carboxamide], the IC50 (TNF-α in human PBMCs) was 7.24 µM, the IC50 [1] was 1030 nM and the IC50 (IRAK4) was 25.3 nM. It also gave an IC50 (IL23p19 in THP-1 Cells) of 3.91 µM.
With CC(C)Oc1cc2c(O[C@@H]3CCCN(C(=O)CC#N)C3)ncc(-c3cnn(CC4CCOCC4)c3)c2cc1C(N)=O [Compound I-118, (R)-1-((1-(2-cyanoacetyl)piperidin-3-yl)oxy)-7-isopropoxy-4-(1-((tetrahydro-2H-pyran-4-yl)methyl)-1H-pyrazol-4-yl)isoquinoline-6-carboxamide] the IC50 (TNF-α in human PBMCs) was 6.5 µM, the IC50 [1] was 1500 nM and the IC50 (IRAK4) was 20.4 nM. The IC50 (IL23p19 in THP-1 Cells) was 4.2 µM.
Work on CC(C)Oc1cc2c(O[C@@H]3CCCN(C(=O)CC#N)C3)ncc(-c3cnn(CCC4CCOCC4)c3)c2cc1C(N)=O [Compound I-119, (R)-1-((1-(2-cyanoacetyl)piperidin-3-yl)oxy)-7-isopropoxy-4-(1-(2-(tetrahydro-2H-pyran-4-yl)ethyl)-1H-pyrazol-4-yl)isoquinoline-6-carboxamide] yielded an IC50 (TNF-α in human PBMCs) of 2.51 µM, an IC50 [1] of 1020 nM and an IC50 (IRAK4) of 18.4 nM. For the same molecule, the IC50 (IL23p19 in THP-1 Cells) was 2.22 µM.
With CC(C)Oc1cc2c(O[C@@H]3CCCN(C(=O)CC#N)C3)ncc(-c3cnn([C@H]4C[C@@H](N(C)C)C4)c3)c2cc1C(N)=O [Compound I-120, 1-(((R)-1-(2-cyanoacetyl)piperidin-3-yl)oxy)-4-(1-(cis-3-(dimethylamino)cyclobutyl)-1H-pyrazol-4-yl)-7-isopropoxyisoquinoline-6-carboxamide] the IC50 (TNF-α in human PBMCs) was 0.227 µM, the IC50 [1] was 423 nM and the IC50 (IRAK4) was 8.4 nM. The IC50 (IL23p19 in THP-1 Cells) was 2.83 µM.
For CC(C)Oc1cc2c(O[C@@H]3CCCN(C(=O)CC#N)C3)ncc(-c3cnn(C4CCN(C(=O)OC(C)(C)C)CC4)c3)c2cc1C(N)=O [Compound I-121, tert-butyl (R)-4-(4-(6-carbamoyl-1-((1-(2-cyanoacetyl)piperidin-3-yl)oxy)-7-isopropoxyisoquinolin-4-yl)-1H-pyrazol-1-yl)piperidine-1-carboxylate], the IC50 (TNF-α in human PBMCs) was 1.76 µM, the IC50 [1] was 1020 nM and the IC50 (IRAK4) was 12.9 nM. For the same molecule, the IC50 (IL23p19 in THP-1 Cells) was 1.9 µM.
Work on CC(C)Oc1cc2c(O[C@@H]3CCCN(C(=O)CC#N)C3)ncc(-c3cnn(C4CCN(C)CC4)c3)c2cc1C(N)=O [Compound I-123, (R)-1-((1-(2-cyanoacetyl)piperidin-3-yl)oxy)-7-isopropoxy-4-(1-(1-methylpiperidin-4-yl)-1H-pyrazol-4-yl)isoquinoline-6-carboxamide] yielded an IC50 (TNF-α in human PBMCs) of 0.145 µM, an IC50 [1] of 217 nM and an IC50 (IRAK4) of 19.2 nM. It also gave an IC50 (IL23p19 in THP-1 Cells) of 4.9 µM.
CCO[C@H]1CC[C@H](n2cc(-c3cnc(O[C@@H]4CCCN(C(=O)CC#N)C4)c4cc(OC(C)C)c(C(N)=O)cc34)cn2)CC1 [Compound I-124, 1-(((R)-1-(2-cyanoacetyl)piperidin-3-yl)oxy)-4-(1-(trans-4-ethoxycyclohexyl)-1H-pyrazol-4-yl)-7-isopropoxyisoquinoline-6-carboxamide] was tested, and the IC50 (TNF-α in human PBMCs) was 12.2 µM, the IC50 [1] was 352 nM and the IC50 (IRAK4) was 6.8 nM. The IC50 (IL23p19 in THP-1 Cells) was 0.609 µM.
